Where two headings read alike, the source gives them in different places.
Assays:
[1] = tested on: Ral-resistant (1556_1) clinical isolate; assay: In vitro anti-viral assay in human PBMCs (RT activity readout); format: cell-based, HIV-1
Description: (§1) For the assay with human PBMCs, PHA stimulated cells from at least two pooled healthy were infected with HIV-1 strains in 96-well plates. Test drug dilutions, which were prepared at a 2X concentration in microtiter tubes and 100 μL of each concentration (nine total concentrations), were placed in appropriate wells using the standard format. 50 μL of a predetermined dilution of virus stock was placed in each test well (final MOI ≅ 0.1). The PBMC cultures were maintained for 7 days following infection at 37 °C, 5% CO2. After this period, cell-free supernatant samples were collected for analysis of reverse transcriptase (RT) activity. All assays were conducted in triplicates. For RT assay, a microtiter plate-based reverse transcriptase (RT) reaction was utilized (Buckheit et al., AIDS Research and Human Retroviruses 7:295–302, 1991). Tritiated thymidine triphosphate (^3H-TTP, 80 Ci/mmol, NEN) is received in 1:1 dH2O: Ethanol at 1 mCi/mL. Poly rA:oligo dT template:primer (GE Healthcare) was prepared as a stock solution by combining 150 μL poly rA (20 mg/mL) with 0.5 mL oligo dT (20 units/mL) and 5.35 mL sterile dH2O followed by aliquoting (1.0 mL) and storage at—20°C. The RT reaction buffer was prepared fresh on a daily basis and consisted of 125 μL 1.0 M EGTA, 125 μL dH2O, 125 μL 20% Triton X100, 50 μL 1.0 M Tris (pH 7.4), 50 μL 1.0 M DTT, and 40 μL 1.0 M MgCl2. The final reaction mixture was prepared by combining 1 part ^3H-TTP, 4 parts dH2O, 2.5 parts poly rA:oligo dT stock and 2.5 parts reaction buffer. Ten microliters of this reaction mixture were placed in a round bottom microtiter plate and 15 μL of virus containing supernatant is added and mixed. The plate was incubated at 37°C for 60 mins. Following incubation, the reaction volume was spotted onto DE81 filter-mats (Wallac), washed 5 times for 5 mins each in a 5% sodium phosphate buffer or 2X SSC (Life Technologies). Next they were washed 2 times for 1 min each in distilled water, 2 times for 1 min each in 70% ethanol, and then dried. Incorporated radioactivity (counts per min, CPM) was quantified using standard liquid scintillation techniques. These PBMC analysis was conducted by fee to service through Southern Research Institute (Frederick, MD, USA). The IC50 were analyzed using GraphPad Prism (Version 9) and presented as means ± S.D. of the triplicates.

[2] = tested on: Ral-resistant (4736_2) clinical isolate; assay: as above; format: cell-based, HIV-1; details: human PBMCs, Ral-resistant (4736_2)
Description: as §1

[3] = tested on: Ral-resistant (4736_4) clinical isolate; assay: as above; format: cell-based, HIV-1; details: human PBMCs, Ral-resistant (4736_4)
Description: as §1

[4] = tested on: Ral-resistant (8070_1) clinical isolate; assay: as above; format: cell-based, HIV-1
Description: as §1

[5] = tested on: Ral-resistant (8070_2) clinical isolate; assay: as above; format: cell-based, HIV-1
Description: as §1

human PBMCs = assay: Tissue culture cytotoxicity measurement in human PBMCs; format: cell-based
From the text: Multiple chemical scaffolds such as quinoline (BI224436, Fig 1A), benzothiazole (GS-9822, Fig 1B) and pyridine (KF116, Fig 1C) were previously explored for the discovery of ALLINIs. Here, we employed the pyrrolopyridine-based scaffold to synthesize an ALLINI candidate compound, STP0404 (Fig 1D). STP0404 harbors the tert-butoxy moiety that is common to other ALLINIs (Fig 1). First, we measured its in vitro anti-HIV-1 efficacy and cytotoxicity using various HIV-1 strains in multiple cell types, with cytotoxicity initially tested up to 10 μM (Table 1). […] The calculated in vitro minimum therapeutic index (TI) of STP0404 under these conditions was accordingly >25,000. For comparison, we employed two FDA-approved HIV-1 inhibitors, AZT (RT inhibitor) and Raltegravir (Ral, INSTI), alongside 5 different Ral-resistant clinical isolates (Table 1).

IN-LEDGF/p75 binding = IN-LEDGF/p75 binding (Human immunodeficiency virus type 1 group M subtype B, UniProt P12497); assay: HTRF-based inhibition assay for LEDGF/p75 binding to IN; format: biochemical, HIV-1
Description: We examined the ability of STP0404 to inhibit IN binding to LEDGF/p75 using another HTRF-based assay. Briefly, 10 nM His-tagged IN was pre-incubated in a binding buffer (150 mm NaCl, 2 mm MgCl2, 0.1% Nonidet P-40, 1 mg/ml BSA, 25 mm Tris, pH 7.4) with the compound for 30 min at room temperature, and then 10 nM FLAG-tagged LEDGF/p75 was added to the reaction. This was followed by addition of 6.6 nM anti-His6-XL665 and 0.45 nM anti-FLAG-EuCryptate antibodies (Cisbio, Inc., Bedford, MA).

[6] = Four-week oral dose toxicology study in rats (GLP); set-up: species or system SD rats; details: Sprague-Dawley, rat, in vivo, read-out: no-observed-adverse-effect level (NOAEL)
Description: STP0404 was administered orally to 10 or 15 SD rats/sex/group at dose levels of 100, 300 and 600 mg/kg/day for 4 weeks to evaluate its potential toxicity. The reversibility of any effects was also assessed following a 2-week untreated recovery period. Control animals (15 animals/sex) received the vehicle, 0.5 w/v% methylcellulose solution, in a similar manner for comparison. In addition, plasma STP0404 concentrations were determined using TK satellite animals (3 animals/sex/group) to evaluate systemic exposure of the animals to the test article. (Study no. YL18402). STP0404 was administered orally as a capsule to 4 or 6 dogs/sex/group at dose levels of 30, 60 and 90 mg/kg/day for 4 weeks to evaluate its potential toxicity. Control animals (6 animals/sex) received empty gelatin capsules in a similar manner for comparison. The reversibility of any effects was also assessed following a 2-week untreated recovery period (2 animals/sex/group for the control and 90 mg/kg/day groups). In addition, plasma STP0404 concentrations were determined using all tested animals (including control group) to evaluate systemic exposure of the animals to the test article (Study no. YL18403). The test was performed according to the Standard Operating Procedures (SOP) the Good Laboratory Practice (GLP) system of the INA Research.

[7] = Human immunodeficiency virus 1, PBMC
[8] = Human immunodeficiency virus 1, PBMC, read-out: IC50

In the case of `Cc1nc2c(c(C)c(C)n2Cc2cnn(C)c2)c(-c2ccc(Cl)cc2)c1[C@H](OC(C)(C)C)C(=O)O` [STP0404], the “TI (TC50 / IC50)” value [1] is reported as >125,000, the IC50 [1, 7] is reported as 0.08 ± 0.04 nM and the IC50 [2, 8] is reported as 0.03 ± 0.04 nM. For the same compound, the “TI (TC50 / IC50)” value [2] was >330,000, the IC50 [3, 8] was 0.04 ± 0.06 nM and the “TI (TC50 / IC50)” value [3] was >250,000. The IC50 [4, 7] was 0.06 ± 0.07 nM, the “TI (TC50 / IC50)” value ([4]; human PBMCs, Ral-resistant (8070_1)) was >166,000 and the “TI (TC50 / IC50)” value [5] was >43,400. The IC50 [5, 7] was 0.23 ± 0.39 nM, the TC50 (human PBMCs; human) was >10,000 nM and the TC50 (human PBMCs; human PBMCs, NL4-3, tested up to 10 μM) was >10,000 nM. The TC50 (human PBMCs; human PBMCs, no observable cytotoxicity at 10 μM) was > 10 µM, the IC50 (IN-LEDGF/p75 binding) was 190 ± 70 nM and the NOAEL at 4 weeks ([6]; female rats) was 600 mg/kg/day. For the same compound, the NOAEL at 4 weeks ([6]; male rats) was 300 mg/kg/day.
